From paper PMC7195640, “New Synthetic 3-Benzoyl-5-Hydroxy-2H-Chromen-2-One (LM-031) Inhibits Polyglutamine Aggregation and Promotes Neurite Outgrowth through Enhancement of CREB, NRF2, and Reduction of AMPKα in SCA17 Cell Models” (Oxidative Medicine and Cellular Longevity, 2020)

What was measured:
[1] = system: TBP/Q79-GFP-expressing SH-SY5Y cells; experiment: TBP/Q79-GFP SH-SY5Y neurite outgrowth assay (also with shRNA knockdown or AICAR); assay type: cell-based, Human; conditions: for increased neurite outgrowth: vs untreated
Experimental: (§1) On day 1, 2 × 10^4 of SH-SY5Y TBP/Q79-GFP cells were seeded on a 24-well plate with retinoic acid (10 μM; Sigma-Aldrich) added to induce neuronal differentiation. On day 2, the cells were treated with LM-031 or licochalcone A (100 nM) for 8 h and TBP/Q79-GFP expression was induced as described. On day 8, cells were stained with Hoechst 33342 (0.1 μg/mL) and the aggregation percentage and neurite outgrowth were assessed by high-content analysis as described. The morphologic differentiation of TBP/Q79-GFP-expressing cells was analyzed by using the Neurite Outgrowth Application Module (Molecular Devices).
(§2) To knockdown the expression of NRF2 and CREB in TBP/Q79-GFP SH-SY5Y cells, lentiviruses with short hairpin RNA (shRNA) targeting NRF2 (TRCN0000007558), CREB (TRCN0000226466), and a negative control scrambled (TRC2.Void) were obtained from the National RNAi Core Facility, Institute of Molecular Biology/Genomic Research Center, Academia Sinica, Taipei, Taiwan. On day 1, cells were plated on 6-well plates (8 × 10^5/well for protein analysis) or 24-well plates (2 × 10^4/well for neurite outgrowth analysis) in the presence of retinoic acid as described. On day 2, the cells were infected with lentivirus (multiplicity of infection: 3) in the presence of polybrene (8 μg/mL; Sigma-Aldrich) to increase infectivity. On day 3, the cells were pretreated with LM-031 or licochalcone A (100 nM) for 8 h; induction of TBP/Q79-GFP expression followed. On day 9, the cells were collected for NRF2 and CREB protein analysis or stained with Hoechst 33342 and analyzed for aggregation and neurite outgrowth as described.
(§3) AICAR (5-aminoimidazole-4-carboxamide 1-β-D-ribofuranoside) (Sigma-Aldrich), an analog of adenosine monophosphate (AMP), was used to stimulate AMP-dependent protein kinase (AMPK) activity. TBP/Q79-GFP SH-SY5Y cells were plated on 6-well or 24-well plates in the presence of retinoic acid as described. On day 2, the cells were pretreated with LM-031 or licochalcone A (100 nM) for 4 h; AICAR (0.1 mM) treatment and TBP/Q79-GFP induction followed. On day 8, the cells were collected for AMPKα and pAMPKα protein analysis or stained with Hoechst 33342 and analyzed for aggregation and neurite outgrowth as described.

AMPKα, pAMPKα (T172) = experiment: Western blot of AMPKα and pAMPKα in TBP/Q79-GFP SH-SY5Y cells; assay type: cell-based, Human; conditions: induced SH-SY5Y cells
Experimental: (§4) Total proteins from TBP/Q79-GFP SH-SY5Y cells were obtained using a lysis buffer containing 50 mM Tris-HCl (pH 8.0), 150 mM NaCl, 1 mM EDTA (pH 8.0), 1 mM EGTA (pH 8.0), 0.1% SDS, 0.5% sodium deoxycholate, 1% Triton X-100, and a protease inhibitor cocktail (Sigma-Aldrich). After quantitation using a protein assay kit (Bio-Rad, Hercules, CA, USA), proteins (20 μg) were separated on 10−12% SDS-polyacrylamide gel electrophoresis and blotted onto polyvinylidene difluoride (PVDF) membranes (Sigma-Aldrich) by reverse electrophoresis. After blocking, the membrane was probed with CREB (1 : 1000; Santa Cruz Biotechnology, Santa Cruz, CA, USA), pCREB (S133) (1 : 1000; Santa Cruz Biotechnology), BCL2 (1 : 500; BioVision, Milpitas, CA, USA), GADD45B (1 : 1000; Abcam, Cambridge, MA, USA), BAX (1 : 500; BioVision), NRF2 (1 : 500; Santa Cruz Biotechnology), AMPKα (1 : 1000; Cell Signaling, Danvers, MA, USA), pAMPKα (T172) (1 : 1000; Cell Signaling), GAPDH (1 : 1000) (MDBio Inc., Taipei, Taiwan), or β-actin (1 : 5000; Millipore, Billerica, MA, USA) primary antibody at 4°C overnight. The immune complexes were detected using a horseradish peroxidase-conjugated goat anti-mouse or goat anti-rabbit IgG antibody (1 : 10000; GeneTex, Irvive, CA, USA) and a chemiluminescent substrate (Millipore).
as §3

[2] = system: TBP/Q79-GFP-expressing SH-SY5Y cells; experiment: TBP/Q79-GFP SH-SY5Y aggregation assay (also with shRNA knockdown or AICAR); assay type: cell-based, Human; conditions: for aggregation / polyQ aggregation: SH-SY5Y cells; for reduction of aggregation: differentiated TBP/Q79-GFP SH-SY5Y cells, vs untreated
Experimental: as §1, §2, §3

[3] = MTT cytotoxicity assay in uninduced TBP/Q79-GFP 293 cells; assay type: cell-based; conditions: human
Experimental: (§5) Compound cytotoxicity was assessed by colorimetric assay measuring cell metabolic activity. Briefly, TBP/Q79-GFP 293 and SH-SY5Y cells were seeded on a 48-well plate (5 × 10^4/well), grown for 20 h, and treated with licochalcone A or LM compounds (0.1–100 μM). After one day, cell viability was measured based on reduction of 3,(4,5-dimethylthiazol-2-yl)-2,5-diphenyltetrazolium bromide (MTT), and the absorbance of the insoluble purple formazan product at OD 570 nm was read by a FLx800 fluorescence microplate reader (Bio-Tek, Winooski, VT, USA).

[4] = MTT cytotoxicity assay in uninduced TBP/Q79-GFP SH-SY5Y cells; assay type: cell-based; conditions: human
Experimental: as §5

NRF2 = experiment: Western blot of NRF2 in TBP/Q79-GFP SH-SY5Y cells; assay type: cell-based, Human; conditions: 100 nM; for NRF2 protein level, uninduced = 100%: induced SH-SY5Y cells, untreated induced 72%; for NRF2 level, scrambled shRNA uninduced = 100%: scrambled shRNA-infected induced SH-SY5Y cells, untreated 54%
Experimental: as §4, §2

GADD45B = experiment: Western blot of GADD45B in TBP/Q79-GFP SH-SY5Y cells; assay type: cell-based, Human; conditions: 100 nM, induced SH-SY5Y cells; untreated induced 66–70%
Experimental: as §4

CREB, pCREB (S133) = experiment: Western blot of CREB and pCREB in TBP/Q79-GFP SH-SY5Y cells; assay type: cell-based, Human; conditions: 100 nM; for pCREB/CREB (phosphor/total ratio), uninduced = 100%: induced SH-SY5Y cells, untreated induced 85%; for pCREB level, scrambled shRNA uninduced = 100%: scrambled shRNA-infected induced SH-SY5Y cells, untreated 81%
Experimental: as §4, §2

[5] = system: TBP/Q79-GFP-expressing 293 cells; experiment: TBP/Q79 293 aggregation assay (high-content analysis of GFP fluorescence); assay type: cell-based, Human
Experimental: GFP fluorescence was evaluated to reflect TBP aggregation in TBP/Q79-GFP-expressing 293 cells. Briefly, cells were plated on 96-well (2 × 10^4/well) dishes, grown for 24 h and treated with different concentrations of licochalcone A or LM compounds (0.1 nM−100 μM) or a positive control suberoylanilide hydroxamic acid (SAHA, 100 nM) (Cayman Chemical, Ann Arbor, MI, USA). After 8 h, doxycycline (10 μg/mL) was added to the cells for 6 days to induce TBP/Q79-GFP expression. In addition, oxaliplatin (5 μM) (Sigma-Aldrich, St Louis, MO, USA) was included for TBP/Q79-GFP aggregate accumulation via blocking cell-cycle progression. On the eighth day, the cells were stained with Hoechst 33342 (0.1 μg/mL; Sigma-Aldrich) for 30 min, and cell images were automatically recorded (excitation/emission wavelengths of 482/536 nm for GFP and 377/447 nm for Hoechst 33342) by using an ImageXpress Micro Confocal High-Content Imaging System (Molecular Devices, Sunnyvale, CA, USA). Aggregation was determined by a Transfluor technology based on GFP fluorescence intensity. To quantify aggregation, the relative aggregation level in untreated cells was set as 100%. Aggregation was measured in wells containing ≥80% viable cells.

BAX = experiment: Western blot of BAX in TBP/Q79-GFP SH-SY5Y cells; assay type: cell-based, Human; conditions: 100 nM, induced SH-SY5Y cells; untreated induced 156%
Experimental: as §4

[6] = 100 nM compound + AICAR 0.1 mM, SH-SY5Y cells, AICAR alone 17.2 μm
[7] = 100 nM, NRF2 shRNA, SH-SY5Y cells
[8] = 100 nM, differentiated TBP/Q79-GFP SH-SY5Y cells
[9] = 100 nM, differentiated TBP/Q79-GFP SH-SY5Y cells, untreated 21.1 μm
[10] = 100 nM, no AICAR, SH-SY5Y cells, no treatment 19.6 μm
[11] = 100 nM, scrambled shRNA, SH-SY5Y cells, no treatment 21.6 μm
[12] = 100 nM compound + AICAR 0.1 mM, AICAR alone 5.2%
[13] = 100 nM, no AICAR, no treatment 4.6%

Structure (SMILES): NC(=O)c1ncn([C@@H]2O[C@H](CO)[C@@H](O)[C@H]2O)c1N [AICAR, 5-aminoimidazole-4-carboxamide 1-β-D-ribofuranoside]
- neurite outgrowth ([1]; AICAR 0.1 mM alone, SH-SY5Y cells, no treatment 19.6 μm): 17.2 μm
- pAMPKα level, uninduced = 100% (AMPKα, pAMPKα (T172); AICAR 0.1 mM alone, without AICAR 134%): 160%
- aggregation ([2]; AICAR 0.1 mM alone, no treatment 4.6%): 5.2%

Structure (SMILES): COc1ccc(C(=O)/C=C/c2cc(Br)ccc2O)cc1 [LM-004]
- IC50 at 24 h [3]: 45 µM
- IC50 at 24 h [4]: 54 µM

Structure (SMILES): COc1ccc(O)c(/C=C/C(=O)c2ccccc2)c1 [LM-006]
- IC50 at 24 h [3]: 47 µM
- IC50 at 24 h [4]: 56 µM

Structure (SMILES): Cc1ccc(/C=C/C(=O)c2c(O)c3ccccc3oc2=O)cc1 [LM-016]
- IC50 at 24 h [3]: > 100 µM
- IC50 at 24 h [4]: > 100 µM

Structure (SMILES): COc1cccc(/C=C/C(=O)c2ccc(O)cc2)c1O [LM-026]
- IC50 at 24 h [3]: 53 µM
- IC50 at 24 h [4]: 58 µM

Structure (SMILES): O=C(c1ccccc1)c1cc2c(O)cccc2oc1=O [LM-031, 3-benzoyl-5-hydroxy-2H-chromen-2-one]
- IC50 at 24 h [3]: > 100 µM
- neurite outgrowth [1, 6]: 21.6 μm
- neurite outgrowth [1, 7]: 17.8–18.1 μm
- increased neurite outgrowth [1, 8]: 19−22%
- neurite outgrowth [1, 9]: 25.1–25.6 μm
- neurite outgrowth [1, 10]: 23.0–23.6 μm
- neurite outgrowth [1, 11]: 23.8–24.6 μm
- NRF2 protein level, uninduced = 100% (NRF2): 96–100%
- NRF2 level, scrambled shRNA uninduced = 100% (NRF2): 84–93%
- GADD45B protein level, uninduced = 100% (GADD45B): 104–105%
- pCREB/CREB (phosphor/total ratio), uninduced = 100% (CREB, pCREB (S133)): 110%
- pCREB level, scrambled shRNA uninduced = 100% (CREB, pCREB (S133)): 107–112%
- TBP/Q79-GFP aggregation (untreated cells = 100%) ([5]; 10 nM–10 μM, significantly better than SAHA 100 nM (82%)): 74–76%
- IC50 at 24 h [4]: > 100 µM
- pAMPKα level, uninduced = 100% (AMPKα, pAMPKα (T172); 100 nM compound + AICAR 0.1 mM, AICAR alone 160%): 96%
- phosphor/total ratio of AMPKα, uninduced = 100% (AMPKα, pAMPKα (T172); 100 nM, untreated induced 170%): 130%
- pAMPKα level (phosphor/total ratio of AMPKα), uninduced = 100% (AMPKα, pAMPKα (T172); 100 nM, no AICAR, untreated induced 134%): 110%
- BAX protein level, uninduced = 100% (BAX): 103%
- polyQ aggregation [2, 12]: 4.0%
- aggregation ([2]; 100 nM, NRF2 shRNA): 5.5%
- reduction of aggregation ([2]; 100 nM): 18–20%
- polyQ aggregation [2, 13]: 3.6–3.7%

Structure (SMILES): O=C(CCCCCCC(=O)Nc1ccccc1)NO [SAHA, suberoylanilide hydroxamic acid, reference compound]
- TBP/Q79-GFP aggregation (untreated cells = 100%) ([5]; 100 nM, Dox + oxaliplatin 6 days): 82%

Structure (SMILES): C=CC(C)(C)c1cc(/C=C/C(=O)c2ccc(O)cc2)c(OC)cc1O [licochalcone A, reference compound]
- IC50 at 24 h ([3]; uninduced TBP/Q79-GFP 293 cells, MTT, compounds 0.1−100 μM for 24 h, read-out: IC50 cytotoxicity): 53 µM
- neurite outgrowth [1, 6]: 18.4 μm
- neurite outgrowth [1, 7]: 17.8–18.1 μm
- increased neurite outgrowth [1, 8]: 19−22%
- neurite outgrowth [1, 9]: 25.1–25.6 μm
- neurite outgrowth [1, 10]: 23.0–23.6 μm
- neurite outgrowth [1, 11]: 23.8–24.6 μm
- NRF2 protein level, uninduced = 100% (NRF2): 96–100%
- NRF2 level, scrambled shRNA uninduced = 100% (NRF2): 84–93%
- GADD45B protein level, uninduced = 100% (GADD45B): 104–105%
- pCREB/CREB (phosphor/total ratio), uninduced = 100% (CREB, pCREB (S133)): 110%
- pCREB level, scrambled shRNA uninduced = 100% (CREB, pCREB (S133)): 107–112%
- IC50 at 24 h ([4]; uninduced TBP/Q79-GFP SH-SY5Y cells, MTT, compounds 0.1−100 μM for 24 h, read-out: IC50 cytotoxicity): 57 µM
- BAX protein level, uninduced = 100% (BAX): 103%
- polyQ aggregation [2, 12]: 4.9%
- aggregation ([2]; 100 nM, NRF2 shRNA): 5.5%
- reduction of aggregation ([2]; 100 nM): 18–20%
- polyQ aggregation [2, 13]: 3.6–3.7%
